Source: article PMC4448943 (Neurotoxicology, 2014)
Where two headings read alike, the source gives them in different places.

Columns and labels:
rats = conditions: rat, in vivo, cited from earlier work
hippocampal FAAH = target: T1, hippocampal FAAH (Rattus norvegicus, UniProt P97612); conditions: four hours after dosing, PO 0.3 and 0.6 mg/kg sc, CPO 6 and 12 mg/kg sc
T1 sequence (P97612 1-579): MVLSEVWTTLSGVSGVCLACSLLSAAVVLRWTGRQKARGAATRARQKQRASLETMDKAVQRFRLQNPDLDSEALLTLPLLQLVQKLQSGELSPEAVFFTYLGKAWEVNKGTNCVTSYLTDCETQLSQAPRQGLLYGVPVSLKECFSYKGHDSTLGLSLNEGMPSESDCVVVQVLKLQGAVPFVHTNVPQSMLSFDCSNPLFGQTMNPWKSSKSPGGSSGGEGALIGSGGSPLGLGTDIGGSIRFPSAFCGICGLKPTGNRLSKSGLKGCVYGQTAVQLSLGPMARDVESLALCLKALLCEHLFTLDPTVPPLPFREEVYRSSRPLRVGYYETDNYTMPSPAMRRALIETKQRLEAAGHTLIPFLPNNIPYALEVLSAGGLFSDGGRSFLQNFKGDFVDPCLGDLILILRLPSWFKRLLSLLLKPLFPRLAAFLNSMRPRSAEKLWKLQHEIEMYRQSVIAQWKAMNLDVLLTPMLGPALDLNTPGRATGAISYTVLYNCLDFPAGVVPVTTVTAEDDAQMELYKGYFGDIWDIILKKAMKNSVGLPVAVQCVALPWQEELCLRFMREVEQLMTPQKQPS

rat hippocampal MAGL = target: T2, rat hippocampal MAGL (Rattus norvegicus, UniProt Q8R431); experiment: In vitro inhibition of hippocampal MAGL activity; format: biochemical; conditions: CPO more potent than PO
T2 sequence (Q8R431 1-303): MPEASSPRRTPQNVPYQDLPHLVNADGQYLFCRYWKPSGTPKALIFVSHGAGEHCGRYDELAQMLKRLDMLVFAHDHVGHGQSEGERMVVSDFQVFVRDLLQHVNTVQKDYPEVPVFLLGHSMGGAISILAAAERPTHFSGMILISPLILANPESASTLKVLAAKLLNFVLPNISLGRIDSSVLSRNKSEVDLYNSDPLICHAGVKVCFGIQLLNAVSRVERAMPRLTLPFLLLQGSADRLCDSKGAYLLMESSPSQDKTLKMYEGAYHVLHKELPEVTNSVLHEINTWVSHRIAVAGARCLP

hippocampal MAGL = target: T3, hippocampal MAGL (Rattus norvegicus, UniProt Q8R431); format: in vivo; conditions: four hours after dosing; PO 0.3 and 0.6 mg/kg sc, CPO 6 and 12 mg/kg sc
T3 sequence (Q8R431 1-303): T2 sequence (Q8R431 1-303)

rat hippocampal FAAH = target: T4, rat hippocampal FAAH (Rattus norvegicus, UniProt P97612); experiment: In vitro inhibition of hippocampal FAAH activity; format: biochemical
T4 sequence (P97612 1-579): T1 sequence (P97612 1-579)

hippocampal AChE = target: T5, hippocampal AChE (Rattus norvegicus, UniProt P37136); format: in vivo
T5 sequence (P37136 32-614): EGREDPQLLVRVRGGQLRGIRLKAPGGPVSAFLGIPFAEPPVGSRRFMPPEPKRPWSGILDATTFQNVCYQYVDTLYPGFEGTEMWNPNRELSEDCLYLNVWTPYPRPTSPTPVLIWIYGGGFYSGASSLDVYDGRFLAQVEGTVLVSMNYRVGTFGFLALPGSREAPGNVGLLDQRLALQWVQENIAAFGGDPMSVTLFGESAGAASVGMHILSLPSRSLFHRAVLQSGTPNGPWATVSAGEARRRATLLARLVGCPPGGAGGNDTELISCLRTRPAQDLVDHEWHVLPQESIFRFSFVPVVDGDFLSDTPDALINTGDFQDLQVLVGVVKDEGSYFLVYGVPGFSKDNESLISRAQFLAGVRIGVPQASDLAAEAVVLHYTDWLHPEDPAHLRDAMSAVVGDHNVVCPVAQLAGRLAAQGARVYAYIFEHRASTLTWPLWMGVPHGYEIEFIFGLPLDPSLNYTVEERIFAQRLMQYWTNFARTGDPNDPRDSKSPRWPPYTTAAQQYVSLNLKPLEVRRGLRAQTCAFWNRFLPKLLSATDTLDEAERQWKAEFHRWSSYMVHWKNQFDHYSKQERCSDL

[1] = system: Adult male Sprague-Dawley rats; conditions: rat, in vivo
rat hippocampal AChE = target: T6, rat hippocampal AChE (Rattus norvegicus, UniProt P37136); format: biochemical
T6 sequence (P37136 32-614): T5 sequence (P37136 32-614)

[2] = system: Adult male Sprague-Dawley rats; conditions: rat, in vivo; remark: listed apart in the source

Cc1c(C(=O)NN2CCCCC2)nn(-c2ccc(Cl)cc2Cl)c1-c1ccc(I)cc1 [AM251, N-(piperidin-1-yl)-5-(4-iodophenyl)-1-(2,4-dichlorophenyl)-4-methyl-1H-pyrazole-3-carboxamide]
Influence on responses to chlorpyrifos (rats): no influence

Cc1c(C(=O)c2cccc3ccccc23)c2cccc3c2n1[C@H](CN1CCOCC1)CO3 [WIN 55,212-2]
Effect on signs of cholinergic toxicity following acute PO exposure (rats; po): reduced

CCOP(=O)(OCC)Oc1nc(Cl)c(Cl)cc1Cl [chlorpyrifos oxon]
In vivo inhibition of hippocampal FAAH activity (hippocampal FAAH): 90–95%
In vivo inhibition of hippocampal FAAH activity (hippocampal FAAH; listed as CPO): 80–90%
In vitro potency at inhibiting MAGL relative to PO (rat hippocampal MAGL): ≈ 19 fold
In vivo inhibition of hippocampal MAGL activity (hippocampal MAGL): 37–50%
IC50 (rat hippocampal FAAH): 0.071 µM
In vitro potency at inhibiting FAAH relative to PO (rat hippocampal FAAH; CPO more potent than PO): ≈ 8 fold
In vivo inhibition of hippocampal AChE activity (hippocampal AChE; rat, in vivo): 80–90%
Lethality ([1]; male, Sprague-Dawley): 0/6
Lethality [1]: no lethality
In vitro potency at inhibiting AChE relative to PO (rat hippocampal AChE): ≈ 2 fold
Involuntary movements (tremors) [2]: dose-related
SLUD signs (primarily defecation and lacrimation) [2]: slightly increased

CCOP(=O)(OCC)Oc1ccc([N+](=O)[O-])cc1 [paraoxon, Paraoxon]
In vivo inhibition of hippocampal FAAH activity (hippocampal FAAH): 90–95%
In vivo inhibition of hippocampal FAAH activity (hippocampal FAAH; listed as PO): 80–90%
In vivo inhibition of hippocampal MAGL activity (hippocampal MAGL): neither dosage of paraoxon affected MAGL activity
IC50 (rat hippocampal FAAH): 0.562 µM
In vivo inhibition of hippocampal AChE activity (hippocampal AChE; four hours after dosing, PO 0.3 and 0.6 mg/kg sc, CPO 6 and 12 mg/kg sc): 80–90%
Lethality ([1]; male, Sprague-Dawley, 0.6 mg/kg): 2/14
Involuntary movements (tremors) [2]: dose-related
SLUD signs (primarily defecation and lacrimation) [2]: slightly increased
